Numbers after ± are expanded uncertainties. Each block holds one compound with its values, some of them ahead of it.
How the values were obtained:
[1] = for Normal melting temperature: Crystal 1
[2] = Molar enthalpy of transition or fusion; conditions: DSC

- Normal melting temperature ([1]; visual observation): 0.00 ± 1.1 °C
SMILES: O [water]

- Normal melting temperature ([1]; visual observation): 24.00 ± 1.1 °C
SMILES: CCCCCCCCCCCCO [dodecan-1-ol]

- Normal melting temperature ([1]; visual observation): 7.00 ± 1.1 °C
SMILES: CCCCCCCCCCO [decan-1-ol]

SMILES: CC[N+]1(C)CCCCC1.O=S(=O)([N-]S(=O)(=O)C(F)(F)F)C(F)(F)F
- Normal melting temperature ([1]; DTA): 84.89 ± 0.5 °C
- Normal melting temperature ([1]; visual observation): 84.56 ± 0.5 °C
- Triple point temperature ([1]; Crystal 2, visual observation): 289.6 ± 0.5 K
- Triple point temperature ([1]; Crystal 3, DTA): 215.8 ± 0.5 K
- Molar enthalpy of transition or fusion ([2]; Crystal 1): 3.97 ± 0.124 kcal/mol
- Molar enthalpy of transition or fusion ([2]; Crystal 2): 0.844 ± 0.0454 kcal/mol
- Molar enthalpy of transition or fusion ([2]; Crystal 3): 0.586 ± 0.0406 kcal/mol

- Normal melting temperature ([1]; visual observation): -34.60 ± 1.1 °C
SMILES: CCCCCCCO [heptan-1-ol]

- Normal melting temperature ([1]; visual observation): -45.00 ± 1.1 °C
SMILES: CCCCCCO [hexan-1-ol]

- Normal melting temperature ([1]; DTA): 31.17 ± 0.5 °C
- Triple point temperature ([1]; Crystal 2, DTA): 274.2 ± 0.5 K
- Glass transition temperature ([1]; Glass, DTA): -71.8 ± 10 °C
- Molar enthalpy of transition or fusion ([2]; Crystal 1): 0.722 ± 0.0478 kcal/mol
- Molar enthalpy of transition or fusion ([2]; Crystal 2): 3.65 ± 0.117 kcal/mol
SMILES: CCCC[N+]1(C)CCCCC1.N#C[S-] [1-butyl-1-methylpiperidinium thiocyanate]

- Normal melting temperature ([1]; visual observation): -16.00 ± 1.1 °C
SMILES: CCCCCCCCO [octan-1-ol]
